Test results as given in the supplement of paper PMC10307832.

Key:
Test in all cases: relative viability (nuclei count vs DMSO), 5 days (fraction); higher = more cells survive
KIN001-266 + OSI-027 = compound: CCN1CCC(CC1)N2C=C(N=N2)CNC3=CC4=C(C(=CN=C4C(=C3)Cl)C#N)NC5=CC(=C(C=C5)F)Cl [KIN001-266] + COc1cccc2cc(-c3nc([C@H]4CC[C@H](C(=O)O)CC4)n4ncnc(N)c34)[nH]c12 [OSI-027] (partner 0.5 µM)
Summary of the method: (§1)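 Relative viability divides the nuclei count in treated wells by that in vehicle wells. Lung cancer cell lines were seeded in 1536-well plates, dosed by pin tool the next day, and fixed and stained after 5 days in one step with final 0.05% Triton X-100, 1% formaldehyde and 1 ug/ml Hoechst. Dosing was a single drug or a fixed anchor-drug dose plus five library-drug doses (not always all listed) in √10 steps, and values are medians of duplicate plates imaged at 4×.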

KIN001-266 + Crizotinib = compound: CCN1CCC(CC1)N2C=C(N=N2)CNC3=CC4=C(C(=CN=C4C(=C3)Cl)C#N)NC5=CC(=C(C=C5)F)Cl [KIN001-266] + C[C@@H](Oc1cc(-c2cnn(C3CCNCC3)c2)cnc1N)c1c(Cl)ccc(F)c1Cl [Crizotinib] (partner 1 µM)
Summary of the method: as §1

KIN001-266 + Linsitinib = compound: CCN1CCC(CC1)N2C=C(N=N2)CNC3=CC4=C(C(=CN=C4C(=C3)Cl)C#N)NC5=CC(=C(C=C5)F)Cl [KIN001-266] + C[C@]1(O)C[C@@H](c2nc(-c3ccc4ccc(-c5ccccc5)nc4c3)c3c(N)nccn32)C1 [Linsitinib] (partner 1 µM)
Summary of the method: as §1

KIN001-266 + Tozasertib = compound: CCN1CCC(CC1)N2C=C(N=N2)CNC3=CC4=C(C(=CN=C4C(=C3)Cl)C#N)NC5=CC(=C(C=C5)F)Cl [KIN001-266] + Cc1cc(Nc2cc(N3CCN(C)CC3)nc(Sc3ccc(NC(=O)C4CC4)cc3)n2)n[nH]1 [Tozasertib] (partner 0.1 µM)
Summary of the method: as §1

Cell Line	relative viability (KIN001-266 + OSI-027; first compound 0.08 µM)	relative viability (KIN001-266 + OSI-027; first compound 0.253 µM)	relative viability (KIN001-266 + OSI-027; first compound 0.8 µM)	relative viability (KIN001-266 + OSI-027; first compound 2.53 µM)	relative viability (KIN001-266 + OSI-027; first compound 8 µM)	relative viability (KIN001-266 + Crizotinib; first compound 0.08 µM)	relative viability (KIN001-266 + Crizotinib; first compound 0.253 µM)	relative viability (KIN001-266 + Crizotinib; first compound 0.8 µM)	relative viability (KIN001-266 + Crizotinib; first compound 2.53 µM)	relative viability (KIN001-266 + Crizotinib; first compound 8 µM)	relative viability (KIN001-266 + Linsitinib; first compound 0.08 µM)	relative viability (KIN001-266 + Linsitinib; first compound 0.253 µM)	relative viability (KIN001-266 + Linsitinib; first compound 0.8 µM)	relative viability (KIN001-266 + Linsitinib; first compound 2.53 µM)	relative viability (KIN001-266 + Linsitinib; first compound 8 µM)	relative viability (KIN001-266 + Tozasertib; first compound 0.08 µM)	relative viability (KIN001-266 + Tozasertib; first compound 0.253 µM)	relative viability (KIN001-266 + Tozasertib; first compound 0.8 µM)	relative viability (KIN001-266 + Tozasertib; first compound 2.53 µM)	relative viability (KIN001-266 + Tozasertib; first compound 8 µM)
NCI-H358	0.79	0.72	0.997	0.903	0.596	0.537	0.794	0.656	0.454	0.268	0.695	0.628	0.821	0.667	0.33	0.107	0.129	0.132	0.0982	0.0945
NCI-H1915	0.703	0.635	0.629	0.661	0.49	0.895	0.87	0.902	0.918	0.851	1.1	1.1	1.1	1.06	0.998	0.447	0.418	0.396	0.422	0.369
RERF-LC-KJ	0.645	0.614	0.519	0.498	0.351	0.722	0.899	0.803	0.777	0.813	0.947	0.857	0.917	0.846	0.656	0.499	0.551	0.557	0.359	0.299
LOU-NH91	0.753	0.76	0.434	0.608	0.546	0.75	0.694	0.576	0.683	0.647	0.968	0.952	0.652	0.896	0.73	0.675	0.689	0.492	0.609	0.501
NCI-H2347	0.606	0.456	0.296	0.374	0.255	0.675	0.802	0.673	0.682	0.625	0.998	0.936	0.937	0.762	0.573	0.521	0.5	0.558	0.518	0.367
NCI-H2126	0.712	0.754	0.696	0.635	0.618	1.04	1.02	0.965	1.05	1.08	0.72	0.724	0.739	0.73	0.73	0.8	0.857	0.85	0.84	0.78
HCC-827	0.682	0.787	0.495	0.734	0.661	0.944	0.921		0.931	0.849	0.952	1.03		0.945	0.841	0.442	0.432	0.41	0.359	0.389
NCI-H3122	0.965	0.905	0.917	0.804	0.8	0.329	0.239	0.267	0.256	0.221	0.979	0.97	0.996	0.958	0.96	0.428	0.389	0.389	0.378	0.37
HOP-62	0.888	0.893	0.877	0.765	0.797	0.823	1.09	0.924	0.963	0.971	0.961	1.01	1.09	0.945	0.439	0.414	0.381	0.384	0.328	0.319
HCC-44	0.5	0.664	0.605	0.441	0.593	0.812	0.785	0.754	0.797	0.743	0.669	0.678	0.687	0.742	0.622	0.886	0.917	0.976	0.987	0.865
